# Test results as given in paper PMC10831447 (Molecular Cancer Therapeutics, 2023).
# Assays:
# 25 RCC PDX models = assay: RCC PDX in vivo study, all models; set-up: species or system mouse
# A549 wild-type [1] = assay: Colony formation assay; format: cell-based, human; conditions: 1E−05, 2.5E−06, 5E−07 mol/L
# [2] = cited from earlier work
# A549 p53 KO [3] = assay: Colony formation assay; format: cell-based, human; conditions: isogenic A549 TP53 KO; 1E−05, 2.5E−06, 5E−07 mol/L
# A549 p53 KO [4] = assay: Cell-cycle analysis by FACS; format: cell-based, human; conditions: A549 TP53 KO; M8891 1E−06 mol/L, nutlin-3A 3E−06 mol/L
# A549 wild-type [5] = assay: Cell-cycle analysis by FACS; format: cell-based, human; conditions: A549 parental; 24 hours; M8891 1E−06 mol/L, nutlin-3A 3E−06 mol/L
Compound,integrated survival analysis based on RTV changes (AUC) (25 RCC PDX models; across all 25 PDX models),antitumor activity in cohort of 25 RCC PDX models (25 RCC PDX models; dose and schedule tested in this study),colony formation (A549 wild-type [1]),elimination [2],side effects [2],colony formation (A549 p53 KO [3]),shift in cell-cycle distribution (A549 p53 KO [4]),cell-cycle distribution (A549 wild-type [5])
CCN(CC)CCNC(=O)c1c(C)[nH]c(/C=C2\C(=O)Nc3ccc(F)cc32)c1C [Sunitinib],clear survival benefit,moderate,–,–,–,–,–,–
CO[C@@H]1[C@H](OC(=O)NC(=O)CCl)CC[C@]2(CO2)[C@H]1[C@@]1(C)O[C@@H]1CC=C(C)C [TNP-470],–,–,blocked,rapid elimination,neurologic side effects,resistant,–,–
COc1ccc(C2=N[C@@H](c3ccc(Cl)cc3)[C@@H](c3ccc(Cl)cc3)N2C(=O)N2CCNC(=O)C2)c(OC(C)C)c1 [nutlin-3A],–,–,significantly reduced colony formation,–,–,resistant,not observed,more prominent arrest in G2–M
